In patent US9795600B2, “Method for treating abnormal β-amyloid mediated diseases” (NATIONAL TAIWAN NORMAL UNIVERSITY, priority 2014, dated 2017):

Tests used:
HSPB1 = HSPB1 expression in Aβ-GFP SH-SY5Y cells (Western blot); type: cell-based, human; settings: 5 μM; uninduced cells = 100%, induced untreated cells 90%
Source text: The result is shown in FIG. 6, wherein the relative HSPB1 level of uninduced cells is set as 100%. *, P<0.05 between induced vs uninduced cells or compound-treated vs. untreated cells (n=3).

[1] = tested on: mouse hippocampal primary culture; assay: Mouse hippocampal primary culture under oligomeric Aβ toxicity; type: cell-based; settings: 1, 10 or 30 μM, oligomeric Aβ 1 μM, vs. Aβ alone; for total cells (DAPI staining) against oligomeric Aβ toxicity: FIG. 7(A); for mature neurons (NeuN staining) against oligomeric Aβ toxicity: FIG. 7(B); for synaptophysin level against oligomeric Aβ toxicity: FIG. 7(F); for neurite outgrowth (process, branch, length; MAP2 staining) against oligomeric Aβ toxicity: FIGS. 7(C)-(E)
Method: Postnatal day 0-1 mouse hippocampus was isolated for primary culture, and used to confirm the neuroprotective potential of the compounds of the present invention. Oligomeric Aβ (1 μM) was applied to the primary culture after the indolylquinoline compound (compounds 1, 2, 6 and 7) administration (1, 10, or 30 μM) at day 9. Cells were harvested 1 hr later for immunocytochemical analysis and quantitated the total cell number (as shown in FIG. 7(A), by DAPI staining), mature neuron number (as shown in FIG. 7(B), by NeuN antibody staining), neurite process (as shown in FIG. 7(C), by MAP2 antibody staining), neurite branch (as shown in FIG. 7(D), by MAP2 antibody staining), neurite length (as shown in FIG. 7(E), by MAP2 antibody staining), and synaptophysin expression level (as shown in FIG. 7(F), by synaptophysin antibody staining) In FIG. 7(A) to (F), the relative amount of cells treated with vesicle (hexafluoroisopropanol) is set as 100%. ###, P<0.001 between cells treated with Aβ and vehicle (n=3). *, P<0.05; **, P<0.01; ***, P<0.001 between cells treated with Aβ combined the compound of the present invention and Aβ alone (n=3).

Trx-His-Aβ protein = molecular target: T1, Trx-His-Aβ protein (Homo sapiens, UniProt P05067); assay: Trx-His-Aβ biochemical assay (thioflavin T staining); settings: Trx-His-Aβ 10 μM, 37° C., 48 hr, Trx-His-Aβ with 2 days' incubation = 100%
T1 construct: the inventors overexpressed Trx-His tagged Aβ construct in E. coli; made in house; host or cells: E. coli
T1 sequence (P05067 672-713 limits assumed): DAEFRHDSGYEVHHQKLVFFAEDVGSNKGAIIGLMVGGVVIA
Method: Aggregation of β-amyloid (Aβ) was considered as target for intervention. For the biochemical assay, the inventors overexpressed Trx-His tagged Aβ construct in E. coli. After metal-affinity chromatography purification, the misfolded Trx-His-Aβ proteins can be identified by thioflavin T staining assay. The fluorescent intensity is increased after thioflavin T binds misfolded Trx-His-Aβ protein, and thus the misfolding level of Trx-His-Aβ protein can be measured. […] Then thioflavin T (10 μM) was added for 5 min and fluorescence analyzed on a microplate reader (excitation: 420 nm, emission: 485 nm). To normalize, the relative thioflavin T fluorescence of Trx-His-Aβ protein with 2 days' incubation at 37° C. is set as 100%. *, P<0.05 (n=3).

[2] = tested on: Tet-On Aβ-GFP HEK-293 cells; assay: Tet-On Aβ-GFP HEK-293 cell assay (GFP fluorescence, HCA); type: cell-based, human; settings: 8 hr pretreatment, Dox 64 hr, untreated cells = 100%
Source text: For cell assay, we used a HEK-293 cell clone (human embryonic kidney cells) with Tet-On Aβ-GFP expression as a screening platform. GFP fluorescence was used to reflect Aβ aggregation status as Aβ aggregated rapidly to cause the fused GFP misfolded. Inhibition of Aβ aggregation may improve GFP misfolding, leading to increasing fluorescence on Aβ-GFP expressing cells. Tet-On Aβ-GFP HEK-293 cells were pretreated with different concentrations of compounds 1, 2, 6, 7 and curcumin for 8 hr before inducing Aβ-GFP expression. Then doxycycline (Dox) (10 μM) was added to the medium for 64 hr to induce Aβ-GFP expression, and GFP fluorescence was assessed by a high-content analysis (HCA) system (ImageXpressMICRO, available from Molecular Devices). To normalize, the relative GFP fluorescence of untreated cells (untreated with compounds 1, 2, 6 and 7, and curcumin) is set as 100%. *, P<0.05 as compared to the untreated cells; #, P<0.05 as compared to the same concentration curcumin-treated cells (n=3).

[3] = tested on: Tet-On Aβ-GFP HEK-293 cells; assay: ROS assay in Tet-On Aβ-GFP HEK-293 cells; type: cell-based, human; settings: 5 μM; uninduced cells = 100%, induced untreated cells 128%
Method: Given that Aβ deposition causes cell death via a number of potential mechanisms including oxidative stress, the inventor also performed ROS assay with curcumin or synthetic indolylquinoline compounds 1, 2, 6 and 7 treatment (5 μM).

[4] = tested on: Tet-On Aβ-GFP SH-SY5Y cells; assay: Neurite outgrowth in Tet-On Aβ-GFP SH-SY5Y cells (TUBB3 immunostaining, HCA); type: cell-based, human; settings: 5 μM; Dox 6 days; uninduced cells = 100%, induced untreated cells 87%
Method: Tet-On Aβ human neuroblastoma SH-SY5Y cells were used to examine the neuroprotective potential of the compounds of the present invention. Tet-On Aβ-GFP SH-SY5Y cells were plated into 24-well plates with 10 μM retinoic acid (RA), grown for 24 hr and treated with tested indolylquinoline compounds 1, 2, 6 and 7 (5 μM) for 8 hr. Then doxycycline (10 μM) was added to the medium to for 6 days. Neurite outgrowth was assessed after TUBB3 immunostaining, and examined with the HCA system. The result is shown in FIG. 5, wherein the relative neurite outgrowth of uninduced cells (untreated with Dox) is set as 100%. *, P<0.05 between induced vs. uninduced cells or compound-treated vs. untreated cells (n=3).

[5] = 1.2˜5.0 μM, above 80% of viable cells

## Cc1nc2ccccc2cc1Cc1c[nH]c2ccccc12 [compound 7]
HSPB1
  relative HSPB1 level: 117%
[1]
  total cells (DAPI staining) against oligomeric Aβ toxicity: significantly improved
  mature neurons (NeuN staining) against oligomeric Aβ toxicity: significantly improved
  synaptophysin level against oligomeric Aβ toxicity: significantly improved
  neurite outgrowth (process, branch, length; MAP2 staining) against oligomeric Aβ toxicity: significantly improved
Trx-His-Aβ protein; 20 μM compound
  relative thioflavin T fluorescence (misfolded Trx-His-Aβ aggregation): 84%
[2]; 1.2 μM, above 80% of viable cells
  relative GFP fluorescence (Aβ-GFP): 105%

## COc1cc(/C=C/C(=O)CC(=O)/C=C/c2ccc(O)c(OC)c2)ccc1O [curcumin, reference compound]
[3]
  relative ROS level: 86%
HSPB1
  relative HSPB1 level: 123%
[4]
  relative neurite outgrowth: 105%
Trx-His-Aβ protein; 5˜20 μM compound
  relative thioflavin T fluorescence (misfolded Trx-His-Aβ aggregation): 76˜54%
[2]; 2.5˜5.0 μM
  relative GFP fluorescence (Aβ-GFP): 111˜122%

## CC(=O)C(=Cc1ccccc1[N+](=O)[O-])Cc1c[nH]c2ccccc12 [compound 1]
HSPB1
  relative HSPB1 level: 126%
[1]
  total cells (DAPI staining) against oligomeric Aβ toxicity: significantly improved
  mature neurons (NeuN staining) against oligomeric Aβ toxicity: significantly improved
  synaptophysin level against oligomeric Aβ toxicity: significantly improved
  neurite outgrowth (process, branch, length; MAP2 staining) against oligomeric Aβ toxicity: significantly improved
Trx-His-Aβ protein; 20 μM compound
  relative thioflavin T fluorescence (misfolded Trx-His-Aβ aggregation): 79%
[2]; [5]
  relative GFP fluorescence (Aβ-GFP): 112˜129%

## CC(=O)C(=Cc1ccccc1[N+](=O)[O-])Cc1c(C)[nH]c2ccccc12 [compound 2]
HSPB1
  relative HSPB1 level: 112%
[1]
  total cells (DAPI staining) against oligomeric Aβ toxicity: significantly improved
  mature neurons (NeuN staining) against oligomeric Aβ toxicity: significantly improved
  synaptophysin level against oligomeric Aβ toxicity: significantly improved
  neurite outgrowth (process, branch, length; MAP2 staining) against oligomeric Aβ toxicity: significantly improved
Trx-His-Aβ protein; 10˜20 μM compound
  relative thioflavin T fluorescence (misfolded Trx-His-Aβ aggregation): 74˜70%
[2]; 1.2˜2.5 μM, above 80% of viable cells
  relative GFP fluorescence (Aβ-GFP): 107˜120%

## CCc1cccc2c(CC(=Cc3ccccc3[N+](=O)[O-])C(C)=O)c[nH]c12 [compound 6]
HSPB1
  relative HSPB1 level: 116%
[1]
  total cells (DAPI staining) against oligomeric Aβ toxicity: significantly improved
  mature neurons (NeuN staining) against oligomeric Aβ toxicity: significantly improved
  synaptophysin level against oligomeric Aβ toxicity: significantly improved
  neurite outgrowth (process, branch, length; MAP2 staining) against oligomeric Aβ toxicity: significantly improved
Trx-His-Aβ protein; 5˜20 μM compound
  relative thioflavin T fluorescence (misfolded Trx-His-Aβ aggregation): 90˜71%
[2]; [5]
  relative GFP fluorescence (Aβ-GFP): 107˜130%
